# Results taken from PubChem BioAssay AID248 (DTP/NCI, 2004).
# Values joined by “and” are separate entries in the source; they are usually repeats but may differ in a detail not shown here. Equal entries are not always repeated. Inconclusive results and toxic doses are left out.
# Tested on: L1210 leukemia ip in BDF1 mice, survival T/C
# Experiment: NCI In Vivo Anticancer Drug Screen. Data for tumor model L1210 Leukemia (intraperitoneal) in B6D2F1 (BDF1) mice
# Details: endpoint: mean survival time, higher = longer survival
# Outline: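 Read-out is survival time, reported as the treated-group measurement over the vehicle-control measurement.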
# [1] = dose: 50.0 mg/kg/injection, schedule: Q01DX009 (ip), vehicle: Klucel (hydroxypropylcellulose) (HPC)
# [2] = dose: 100.0 mg/kg/injection, schedule: Q01DX009 (ip), vehicle: Klucel (hydroxypropylcellulose) (HPC)
# [3] = dose: 100.0 mg/kg/injection, schedule: Q04DX002 (ip), vehicle: Klucel (hydroxypropylcellulose) (HPC)
# [4] = dose: 200.0 mg/kg/injection, schedule: Q04DX002 (ip), vehicle: Klucel (hydroxypropylcellulose) (HPC)
# [5] = dose: 400.0 mg/kg/injection, schedule: Q04DX002 (ip), vehicle: Klucel (hydroxypropylcellulose) (HPC)
# [6] = dose: 100.0 mg/kg/injection, schedule: Q01DX001 (ip), vehicle: saline
# [7] = dose: 200.0 mg/kg/injection, schedule: Q01DX001 (ip), vehicle: saline
# [8] = dose: 400.0 mg/kg/injection, schedule: Q01DX001 (ip), vehicle: saline
# [9] = dose: 25.0 mg/kg/injection, schedule: Q04DX003 (ip), vehicle: saline
# [10] = dose: 50.0 mg/kg/injection, schedule: Q04DX003 (ip), vehicle: saline
# [11] = dose: 100.0 mg/kg/injection, schedule: Q04DX003 (ip), vehicle: saline
# [12] = dose: 25.0 mg/kg/injection, schedule: Q01DX009 (ip), vehicle: Klucel (hydroxypropylcellulose) (HPC)
# [13] = dose: 100.0 mg/kg/injection, schedule: Q04DX003 (ip), vehicle: Klucel (hydroxypropylcellulose) (HPC)
# [14] = dose: 200.0 mg/kg/injection, schedule: Q04DX003 (ip), vehicle: Klucel (hydroxypropylcellulose) (HPC)
smiles,measurement,setting,value
Cc1ccc(C(=O)CC(Sc2ccccc2N)c2c(Cl)cccc2Cl)c(C)c1 (stereo not drawn),T/C,[1],94 % of control
same,T/C,"dose: 100.0 mg/kg/injection, schedule: Q01DX005 (ip), vehicle: Klucel (hydroxypropylcellulose) (HPC)",108 % of control
same,T/C,[2],94 % of control
same,T/C,[3],98 % of control
same,T/C,"dose: 200.0 mg/kg/injection, schedule: Q01DX005 (ip), vehicle: Klucel (hydroxypropylcellulose) (HPC)",89 % of control
same,T/C,"dose: 200.0 mg/kg/injection, schedule: Q01DX009 (ip), vehicle: Klucel (hydroxypropylcellulose) (HPC)",91 % of control
same,T/C,[4],109 % of control
same,T/C,[5],117 % of control
COc1ccc(Cc2ccc3[nH]c(=O)cc(C)c3c2)cc1S(=O)(=O)O,T/C,[6],104 % of control
same,T/C,[7],105 % of control
same,T/C,[8],94 % of control
CCN(CC)CCn1c2ccncc2c2cnccc21,T/C,[9],96 % of control
same,T/C,[10],101 % of control
same,T/C,[11],103 % of control
CC(C)(S)C(N)C(N)=O (stereo not drawn),T/C,[3],103 % of control
same,T/C,[4],97 % of control
same,T/C,[5],97 % of control
COc1ccc(N)cc1NC(C)=O,T/C,[6],102 % of control
same,T/C,[7],110 % of control
O=C(N=P(c1ccccc1)(c1ccccc1)c1ccccc1)c1ccccc1,T/C,[6],94 % of control
same,T/C,[7],100 % of control
same,T/C,[8],96 % of control
CCN(CC)c1cc(C)c2cc(Cc3ccc4nc(N(CC)CC)cc(C)c4c3)ccc2n1,T/C,[6],90 % of control
same,T/C,[7],96 % of control
same,T/C,[8],90 % of control
O=C(Nc1ccc(C2=NCCN2)cc1)c1ccc(C(=O)Nc2ccc(C3=NCCN3)cc2)c([N+](=O)[O-])c1,T/C,"dose: 1.0 mg/kg/injection, schedule: Q#A X Z (ip), vehicle: saline",103 % of control
same,T/C,"dose: 2.0 mg/kg/injection, schedule: Q01DX Z (ip), vehicle: saline",112 % of control
same,T/C,"dose: 2.5 mg/kg/injection, schedule: Q## X000 (iv), vehicle: other",97 % of control
same,T/C,"dose: 3.6 mg/kg/injection, schedule: Q01DX Z (ip), vehicle: methylcellulose (MC)",163 % of control
same,T/C,"dose: 4.0 mg/kg/injection, schedule: Q01DX Z (ip), vehicle: saline",116 % of control
same,T/C,"dose: 4.0 mg/kg/injection, schedule: Q#A X Z (ip), vehicle: saline",184 % of control
same,T/C,"dose: 5.0 mg/kg/injection, schedule: Q## X000 (iv), vehicle: other",96 % of control
same,T/C,"dose: 5.4 mg/kg/injection, schedule: Q01DX Z (ip), vehicle: methylcellulose (MC)",195 % of control
same,T/C,"dose: 6.0 mg/kg/injection, schedule: Q01DX004 (im), vehicle: olive oil, sesame oil, peanut oil",97 % of control
same,T/C,"dose: 6.0 mg/kg/injection, schedule: Q03DX Z (ip), vehicle: saline",115 % of control
same,T/C,"dose: 8.0 mg/kg/injection, schedule: Q01DX004 (im), vehicle: olive oil, sesame oil, peanut oil",98 % of control
same,T/C,"dose: 8.0 mg/kg/injection, schedule: Q01DX Z (ip), vehicle: methylcellulose (MC)",246 % of control
same,T/C,"dose: 8.0 mg/kg/injection, schedule: Q01DX Z (ip), vehicle: saline",204 % of control
same,T/C,"dose: 10.0 mg/kg/injection, schedule: Q## X000 (iv), vehicle: other",120 % of control
same,T/C,"dose: 12.0 mg/kg/injection, schedule: Q01DX004 (im), vehicle: olive oil, sesame oil, peanut oil",101 % of control
same,T/C,"dose: 12.0 mg/kg/injection, schedule: Q01DX Z (ip), vehicle: methylcellulose (MC)",204 % of control
same,T/C,"dose: 12.0 mg/kg/injection, schedule: Q03DX Z (ip), vehicle: saline",123 % of control
same,T/C,"dose: 16.0 mg/kg/injection, schedule: Q01DX009 (ip), vehicle: saline",188 % of control and 198 % of control
same,T/C,"dose: 18.0 mg/kg/injection, schedule: Q01DX004 (im), vehicle: olive oil, sesame oil, peanut oil",104 % of control
same,T/C,"dose: 24.0 mg/kg/injection, schedule: Q03DX Z (ip), vehicle: saline",188 % of control
same,T/C,"dose: 28.0 mg/kg/injection, schedule: Q07DX Z (ip), vehicle: saline",113 % of control
same,T/C,"dose: 32.0 mg/kg/injection, schedule: Q01DX009 (ip), vehicle: saline",100 % of control and 103 % of control
same,T/C,"dose: 32.0 mg/kg/injection, schedule: Q01DX Z (ip), vehicle: saline",86 % of control
same,T/C,"dose: 48.0 mg/kg/injection, schedule: Q03DX Z (ip), vehicle: saline",172 % of control
same,T/C,"dose: 64.0 mg/kg/injection, schedule: Q01DX Z (sc), vehicle: steriod suspending solution",159 % of control
same,T/C,"dose: 96.0 mg/kg/injection, schedule: Q03DX Z (ip), vehicle: saline",100 % of control
same,T/C,"dose: 125.0 mg/kg/injection, schedule: Q01DX Z (sc), vehicle: steriod suspending solution",122 % of control
same,T/C,"dose: 240.0 mg/kg/injection, schedule: Q01DX Z (oral), vehicle: saline",101 % of control
CCOC(=O)c1cccc2ccc[n+](C)c12,T/C,"dose: 37.5 mg/kg/injection, schedule: Q04DX003 (ip), vehicle: saline",91 % of control
same,T/C,"dose: 75.0 mg/kg/injection, schedule: Q01DX001 (ip), vehicle: saline",97 % of control
same,T/C,"dose: 75.0 mg/kg/injection, schedule: Q04DX003 (ip), vehicle: saline",91 % of control
same,T/C,"dose: 150.0 mg/kg/injection, schedule: Q01DX001 (ip), vehicle: saline",97 % of control
same,T/C,"dose: 150.0 mg/kg/injection, schedule: Q04DX003 (ip), vehicle: saline",95 % of control
N#CCN1CCCN(CC#N)C1,T/C,[12],96 % of control
same,T/C,[1],115 % of control
same,T/C,[2],88 % of control and 91 % of control
same,T/C,[13],92 % of control
same,T/C,[14],103 % of control
Clc1cc2nsnc2c2ccccc12,T/C,"dose: 200.0 mg/kg/injection, schedule: Q04DX002 (ip), vehicle: gum acacia",95 % of control
O=c1oc2ccccc2c(O)c1C(c1ccc(C(c2c(O)c3ccccc3oc2=O)c2c(O)c3ccccc3oc2=O)cc1)c1c(O)c2ccccc2oc1=O,T/C,[13],105 % of control
same,T/C,[14],99 % of control
same,T/C,"dose: 400.0 mg/kg/injection, schedule: Q04DX003 (ip), vehicle: Klucel (hydroxypropylcellulose) (HPC)",93 % of control
Cc1ccc(S(=O)(=O)[O][Sn-]([CH2]c2ccccc2)([CH2]c2ccccc2)[CH2]c2ccccc2)cc1,T/C,"dose: 50.0 mg/kg/injection, schedule: Q01DX009 (ip), vehicle: olive oil, sesame oil, peanut oil",97 % of control
same,T/C,"dose: 100.0 mg/kg/injection, schedule: Q01DX009 (ip), vehicle: olive oil, sesame oil, peanut oil",92 % of control
same,T/C,"dose: 100.0 mg/kg/injection, schedule: Q04DX002 (ip), vehicle: alcohol",97 % of control
same,T/C,"dose: 200.0 mg/kg/injection, schedule: Q04DX002 (ip), vehicle: alcohol",90 % of control
CCCCNS(=O)(=O)c1ccc(OC)c(NC(=O)c2ccc(C(=O)Nc3cc(S(=O)(=O)NCCCC)ccc3OC)cc2)c1,T/C,[6],105 % of control
same,T/C,[7],94 % of control
same,T/C,[8],94 % of control
CCOC(=O)/C(C#N)=C/c1cc2c3c(c1)CCCN3CCC2,T/C,"dose: 50.0 mg/kg/injection, schedule: Q04DX003 (ip), vehicle: saline with Tween-80",111 % of control
same,T/C,"dose: 100.0 mg/kg/injection, schedule: Q04DX003 (ip), vehicle: saline with Tween-80",93 % of control
same,T/C,"dose: 200.0 mg/kg/injection, schedule: Q04DX003 (ip), vehicle: saline with Tween-80",93 % of control
same,T/C,"dose: 400.0 mg/kg/injection, schedule: Q04DX003 (ip), vehicle: saline with Tween-80",92 % of control
CCCCNC(=O)Nc1ccc(O)c(C(=O)O)c1,T/C,[12],110 % of control
same,T/C,[1],93 % of control
same,T/C,[2],100 % of control
O=C(Cl)C12CC3CC(CC(C3)C1)C2,T/C,[3],111 % of control
same,T/C,[4],111 % of control
same,T/C,[5],100 % of control
N#CC1C2CCC(C2)C1CCCN (stereo not drawn),T/C,"dose: 25.0 mg/kg/injection, schedule: Q01DX009 (ip), vehicle: saline",108 % of control
same,T/C,[9],102 % of control
same,T/C,"dose: 50.0 mg/kg/injection, schedule: Q01DX009 (ip), vehicle: saline",106 % of control
same,T/C,[10],95 % of control
same,T/C,"dose: 100.0 mg/kg/injection, schedule: Q01DX009 (ip), vehicle: saline",98 % of control
same,T/C,[11],95 % of control and 115 % of control
CN(C)C1CCc2c(ccc3ccccc23)C1=O (stereo not drawn),T/C,"dose: 25.0 mg/kg/injection, schedule: Q01DX001 (ip), vehicle: saline",99 % of control
same,T/C,"dose: 50.0 mg/kg/injection, schedule: Q01DX001 (ip), vehicle: saline",99 % of control
same,T/C,[6],100 % of control
